Measurements reported in the NIST ThermoML archive (doi:10.1016/j.jct.2018.04.018).
Several values for one entry are separate records, joined by “and”; a condition that tells them apart may be missing. Equal entries are not always repeated. ± gives the expanded uncertainty stated by the source.

Details: 101.33 kPa, Liquid; for speed of sound: Single path-length method; for mass density: Vibrating tube method

For CCCCCCCC[n+]1ccn(C)c1.F[P-](F)(F)(F)(F)F [1-octyl-3-methylimidazolium hexafluorophosphate], the viscosity (332.11 K, Cone and plate viscometry) was 101.6 ± 4.4 mPa·s, the viscosity (332.85 K, Cone and plate viscometry) was 99.6 ± 4.3 mPa·s and 99.3 ± 4.3 mPa·s and the viscosity (333.15 K, Concentric cylinders viscometry) was 98.3 ± 2.2 mPa·s. For the same compound, the speed of sound (333.15 K) was 1318.6 ± 1.4 m/s, the mass density (333.15 K) was 1209.85 ± 2.9 kg/m3 [middle of 4 runs] and the viscosity (333.59 K, Cone and plate viscometry) was 95.7 ± 4.1 mPa·s and 96 ± 4.1 mPa·s. For the same compound, the viscosity (334.34 K, Cone and plate viscometry) was 92.5 ± 4 mPa·s, the viscosity (334.35 K, Cone and plate viscometry) was 93 ± 4 mPa·s and the viscosity (335.07 K, Cone and plate viscometry) was 89.7 ± 3.8 mPa·s. For the same compound, the viscosity (335.09 K, Cone and plate viscometry) was 89.6 ± 3.8 mPa·s, the viscosity (335.82 K, Cone and plate viscometry) was 86.7 ± 3.7 mPa·s and 86.8 ± 3.7 mPa·s and the viscosity (336.57 K, Cone and plate viscometry) was 84.1 ± 3.6 mPa·s. For the same compound, the viscosity (337.31 K, Cone and plate viscometry) was 81.6 ± 3.4 mPa·s and 81.7 ± 3.4 mPa·s, the viscosity (338.05 K, Cone and plate viscometry) was 79.3 ± 3.3 mPa·s and the viscosity (338.06 K, Cone and plate viscometry) was 78.8 ± 3.3 mPa·s. The viscosity (338.79 K, Cone and plate viscometry) was 76.6 ± 3.2 mPa·s, the viscosity (338.81 K, Cone and plate viscometry) was 76.2 ± 3.2 mPa·s and the viscosity (339.54 K, Cone and plate viscometry) was 73.9 ± 3.1 mPa·s and 74.2 ± 3.1 mPa·s. It also gave a viscosity (340.28 K, Cone and plate viscometry) of 72 ± 3 mPa·s, a viscosity (340.29 K, Cone and plate viscometry) of 71.9 ± 3 mPa·s and a viscosity (341.03 K, Cone and plate viscometry) of 70 ± 2.9 mPa·s. For the same compound, the viscosity (341.04 K, Cone and plate viscometry) was 69.8 ± 2.9 mPa·s, the viscosity (341.77 K, Cone and plate viscometry) was 68 ± 2.8 mPa·s and 68.1 ± 2.8 mPa·s and the viscosity (342.51 K, Cone and plate viscometry) was 66.1 ± 2.7 mPa·s and 66.6 ± 2.8 mPa·s. For the same compound, the viscosity (343.15 K, Concentric cylinders viscometry) was 64.9 ± 1.4 mPa·s, the mass density (343.15 K) was 1202.43 ± 2.9 kg/m3 [middle of 4 runs] and the speed of sound (343.16 K) was 1296.1 ± 1.4 m/s. The viscosity (343.25 K, Cone and plate viscometry) was 64.1 ± 2.7 mPa·s and 63.9 ± 2.6 mPa·s, the viscosity (344 K, Cone and plate viscometry) was 62.2 ± 2.6 mPa·s and 62 ± 2.6 mPa·s and the viscosity (344.73 K, Cone and plate viscometry) was 60.4 ± 2.5 mPa·s. The viscosity (344.76 K, Cone and plate viscometry) was 60.4 ± 2.5 mPa·s, the viscosity (345.48 K, Cone and plate viscometry) was 58.8 ± 2.4 mPa·s and the viscosity (345.51 K, Cone and plate viscometry) was 58.8 ± 2.4 mPa·s. The viscosity (346.22 K, Cone and plate viscometry) was 57.2 ± 2.4 mPa·s, the viscosity (346.29 K, Cone and plate viscometry) was 56.9 ± 2.3 mPa·s and the viscosity (346.97 K, Cone and plate viscometry) was 55.4 ± 2.3 mPa·s. It also gave a viscosity (347.05 K, Cone and plate viscometry) of 55.1 ± 2.3 mPa·s, a viscosity (347.72 K, Cone and plate viscometry) of 53.8 ± 2.2 mPa·s and a viscosity (347.81 K, Cone and plate viscometry) of 53.7 ± 2.2 mPa·s. It also gave a viscosity (348.46 K, Cone and plate viscometry) of 52.4 ± 2.1 mPa·s, a viscosity (348.57 K, Cone and plate viscometry) of 52.3 ± 2.1 mPa·s and a viscosity (349.19 K, Cone and plate viscometry) of 51.1 ± 2.1 mPa·s. For the same compound, the viscosity (349.33 K, Cone and plate viscometry) was 50.8 ± 2.1 mPa·s, the viscosity (349.94 K, Cone and plate viscometry) was 49.7 ± 2 mPa·s and the viscosity (350.07 K, Cone and plate viscometry) was 49.4 ± 2 mPa·s. It also gave a viscosity (350.69 K, Cone and plate viscometry) of 48.3 ± 2 mPa·s, a viscosity (350.77 K, Cone and plate viscometry) of 48.2 ± 2 mPa·s and a viscosity (351.42 K, Cone and plate viscometry) of 47 ± 1.9 mPa·s. The viscosity (351.48 K, Cone and plate viscometry) was 47.2 ± 1.9 mPa·s, the viscosity (352.16 K, Cone and plate viscometry) was 46 ± 1.9 mPa·s and the viscosity (352.22 K, Cone and plate viscometry) was 46.3 ± 1.9 mPa·s. The viscosity (352.91 K, Cone and plate viscometry) was 45.1 ± 1.9 mPa·s, the viscosity (352.99 K, Cone and plate viscometry) was 45.2 ± 1.9 mPa·s and the viscosity (353.15 K, Concentric cylinders viscometry) was 44.7 ± 0.9 mPa·s. The mass density (353.15 K) was 1195.18 ± 2.9 kg/m3 and 1195.41 ± 2.9 kg/m3, the viscosity (353.66 K, Cone and plate viscometry) was 43.7 ± 1.8 mPa·s and the viscosity (353.75 K, Cone and plate viscometry) was 44.3 ± 1.8 mPa·s. The viscosity (354.39 K, Cone and plate viscometry) was 42.6 ± 1.8 mPa·s, the viscosity (354.48 K, Cone and plate viscometry) was 43 ± 1.8 mPa·s and the viscosity (355.14 K, Cone and plate viscometry) was 41.9 ± 1.7 mPa·s. The viscosity (355.2 K, Cone and plate viscometry) was 42 ± 1.7 mPa·s, the viscosity (355.88 K, Cone and plate viscometry) was 40.9 ± 1.7 mPa·s and the viscosity (355.92 K, Cone and plate viscometry) was 41.3 ± 1.7 mPa·s. It also gave a viscosity (356.63 K, Cone and plate viscometry) of 40.2 ± 1.7 mPa·s, a viscosity (356.66 K, Cone and plate viscometry) of 40.5 ± 1.7 mPa·s and a viscosity (357.36 K, Cone and plate viscometry) of 39 ± 1.6 mPa·s. For the same compound, the viscosity (357.39 K, Cone and plate viscometry) was 39.2 ± 1.6 mPa·s, the viscosity (358.1 K, Cone and plate viscometry) was 37.6 ± 1.6 mPa·s and the viscosity (358.11 K, Cone and plate viscometry) was 38 ± 1.6 mPa·s. For the same compound, the viscosity (358.85 K, Cone and plate viscometry) was 36.5 ± 1.5 mPa·s, the viscosity (358.86 K, Cone and plate viscometry) was 37 ± 1.5 mPa·s and the viscosity (359.6 K, Cone and plate viscometry) was 35.6 ± 1.5 mPa·s and 36.5 ± 1.5 mPa·s. For the same compound, the viscosity (360.35 K, Cone and plate viscometry) was 34.8 ± 1.4 mPa·s and 35.7 ± 1.5 mPa·s, the viscosity (361.08 K, Cone and plate viscometry) was 34.6 ± 1.4 mPa·s and the viscosity (361.09 K, Cone and plate viscometry) was 35 ± 1.4 mPa·s. The viscosity (361.82 K, Cone and plate viscometry) was 33.9 ± 1.4 mPa·s and 34 ± 1.4 mPa·s, the viscosity (362.57 K, Cone and plate viscometry) was 32.8 ± 1.4 mPa·s and the viscosity (362.58 K, Cone and plate viscometry) was 32.5 ± 1.3 mPa·s. For the same compound, the viscosity (363.15 K, Concentric cylinders viscometry) was 32.1 ± 0.7 mPa·s, the mass density (363.15 K) was 1188.37 ± 2.9 kg/m3 and 1188.53 ± 2.9 kg/m3 and the viscosity (363.31 K, Cone and plate viscometry) was 32.1 ± 1.3 mPa·s. The viscosity (363.32 K, Cone and plate viscometry) was 31.9 ± 1.3 mPa·s, the viscosity (364.05 K, Cone and plate viscometry) was 31.3 ± 1.3 mPa·s and 31.4 ± 1.3 mPa·s and the viscosity (364.79 K, Cone and plate viscometry) was 31.1 ± 1.3 mPa·s. The viscosity (364.8 K, Cone and plate viscometry) was 30.9 ± 1.3 mPa·s, the viscosity (365.54 K, Cone and plate viscometry) was 29.7 ± 1.2 mPa·s and 30.4 ± 1.2 mPa·s and the viscosity (366.28 K, Cone and plate viscometry) was 29.6 ± 1.2 mPa·s. The viscosity (366.29 K, Cone and plate viscometry) was 29.1 ± 1.2 mPa·s, the viscosity (367.02 K, Cone and plate viscometry) was 28.7 ± 1.2 mPa·s and 28.9 ± 1.2 mPa·s and the viscosity (367.76 K, Cone and plate viscometry) was 27.9 ± 1.1 mPa·s and 28.2 ± 1.2 mPa·s. It also gave a viscosity (368.49 K, Cone and plate viscometry) of 27.6 ± 1.1 mPa·s, a viscosity (368.51 K, Cone and plate viscometry) of 27.1 ± 1.1 mPa·s and a viscosity (369.24 K, Cone and plate viscometry) of 27 ± 1.1 mPa·s.
